Experimental findings from patent US10517889B2, “Modulators of SMAD7 expression” (Ionis Pharmaceuticals, Inc., priority 2017, dated 2019) are described below.

Strand notation (5' to 3'): a small letter for the sugar, then the base; units joined by * are phosphorothioate-linked, units joined directly phosphodiester-linked; [ ] holds rarer units or linkages, { } end groups; capitals alone tell only the bases. k = constrained ethyl (cEt); [5mC] = 5-methylcytosine; d = 2'-deoxy (DNA)

The test system of one data set is human SMAD7 mRNA. Kind of data set: Antisense inhibition of human SMAD7 mRNA expression in Hep3B cells by 3-10-3 cEt gapmers, 10,000 nM, electroporation (Example 2). Type of data set: cell-based. The conditions noted are these: Hep3B cells, electroporation with 10,000 nM antisense oligonucleotide, approximately 24 hours, SMAD7 mRNA by RT-PCR (RTS5062), relative to untreated control cells. Summed up:
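Hep3B cells (20,000/well) were electroporated with 10,000 nM 3-10-3 cEt gapmer (16-mer, phosphorothioate, 5-methylcytosines) and harvested after about 24 h. SMAD7 mRNA quantified by RT-qPCR with primer probe set RTS5062, normalized to total RNA by RiboGreen; percent inhibition relative to untreated cells.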
As to “799241 (kA*kT*kT*d[5mC]*dT*d[5mC]*d[5mC]*dG*dT*dA*dT*dT*dT*kA*k[5mC]*kT; antisense) [compound 799241]”, the “% Inhibition” value amounted to 16%.

Staying with this data set, now noted: Hep3B cells, electroporation with 10,000 nM antisense oligonucleotide, approximately 24 hours, primer probe set RTS5062, relative to untreated control cells.
“799213 (kT*kG*kT*dT*dT*dA*dT*dA*d[5mC]*dA*d[5mC]*dA*dT*kT*kG*k[5mC]; antisense) [compound 799213]”: the “% inhibition of SMAD7 mRNA expression” value worked out at 42%.
Turning to “799214 (kT*kT*k[5mC]*dT*dT*dG*dT*dT*dT*dA*dT*dA*d[5mC]*kA*k[5mC]*kA; antisense) [compound 799214]”, the “% inhibition of SMAD7 mRNA expression” value came to 46%.
Regarding “799215 (kA*kG*k[5mC]*dA*dA*dA*dG*dT*dG*d[5mC]*dA*dT*d[5mC]*kT*kT*kT; antisense) [compound 799215]”, the “% inhibition of SMAD7 mRNA expression” value is 0%.
As for “799216 (kT*kA*kT*dT*dA*dA*dA*dG*d[5mC]*dA*dA*dA*dG*kT*kG*k[5mC]; antisense) [compound 799216]”, the “% inhibition of SMAD7 mRNA expression” value is reported as 49%.
In the case of “799217 (kG*kT*kT*dA*dT*dT*dT*dG*d[5mC]*dA*dT*dT*dT*kA*kT*kA; antisense) [compound 799217]”, the “% inhibition of SMAD7 mRNA expression” value is reported as 0%.
Regarding “799218 (k[5mC]*kA*kT*dT*dT*dG*dT*dT*dA*dT*dT*dT*dG*k[5mC]*kA*kT; antisense) [compound 799218]”, the “% inhibition of SMAD7 mRNA expression” value amounted to 0%.
Turning to “799219 (kT*kG*kG*d[5mC]*dA*dT*dT*dT*dG*dT*dT*dA*dT*kT*kT*kG; antisense) [compound 799219]”, the “% Inhibition” value turned out to be 0%.
As for “799220 (kA*kA*kT*dT*dT*dG*dG*d[5mC]*dA*dT*dT*dT*dG*kT*kT*kA; antisense) [compound 799220]”, the “% Inhibition” value came out at 0%.
Consider “799221 (kT*kT*kT*dA*dA*dT*dT*dT*dG*dG*d[5mC]*dA*dT*kT*kT*kG; antisense) [compound 799221]”, for which the “% Inhibition” value was determined as 0%.
Consider “799222 (k[5mC]*kT*kT*dT*dT*dT*dT*dA*dA*dT*dT*dT*dG*kG*k[5mC]*kA; antisense) [compound 799222]”, for which the “% Inhibition” value is reported as 0%.
In the case of “799223 (kA*kT*k[5mC]*dT*dT*dG*dT*dG*dT*dT*dT*dA*dT*k[5mC]*kT*kT; antisense) [compound 799223]”, the “% Inhibition” value is 0%.
The same measure, in the same setting: in the case of “799224 (k[5mC]*k[5mC]*kA*dA*dT*d[5mC]*dT*dT*dG*dT*dG*dT*dT*kT*kA*kT; antisense) [compound 799224]” it was 3%; in that of “799225 (kA*k[5mC]*kA*d[5mC]*d[5mC]*dA*dA*dT*d[5mC]*dT*dT*dG*dT*kG*kT*kT; antisense) [compound 799225]”, 4%.
On to “799226 (kA*kA*kA*dA*d[5mC]*dA*d[5mC]*d[5mC]*dA*dA*dT*d[5mC]*dT*kT*kG*kT; antisense) [compound 799226]”, for which the “% Inhibition” value turned out to be 15%.
“799227 (kG*kA*kA*dA*dA*dA*dA*dA*d[5mC]*dA*d[5mC]*d[5mC]*dA*kA*kT*k[5mC]; antisense) [compound 799227]”: the “% Inhibition” value was found to be 2%.
The same measure, in the same setting: as for “799228 (k[5mC]*kA*kT*dA*dG*dA*dA*dA*dA*dA*dA*dA*d[5mC]*kA*k[5mC]*k[5mC]; antisense) [compound 799228]”, the figure is 4%.
On to “799229 (kA*kA*k[5mC]*dA*d[5mC]*d[5mC]*d[5mC]*dA*dT*dA*dG*dA*dA*kA*kA*kA; antisense) [compound 799229]”, for which the “% inhibition of SMAD7 mRNA expression” value is reported as 22%.
As to “799230 (kG*kG*kT*dG*dA*dT*dA*dA*d[5mC]*dA*d[5mC]*d[5mC]*d[5mC]*kA*kT*kA; antisense) [compound 799230]”, the “% inhibition of SMAD7 mRNA expression” value amounted to 14%.
Regarding “799231 (kG*k[5mC]*kT*dA*dG*dG*dT*dG*dA*dT*dA*dA*d[5mC]*kA*k[5mC]*k[5mC]; antisense) [compound 799231]”, the “% inhibition of SMAD7 mRNA expression” value was 8%.
For “799232 (kT*k[5mC]*kA*dG*d[5mC]*dT*dA*dG*dG*dT*dG*dA*dT*kA*kA*k[5mC]; antisense) [compound 799232]”, the “% inhibition of SMAD7 mRNA expression” value is reported as 13%.
The same measure, in the same setting: as for “799233 (k[5mC]*kA*kT*dT*d[5mC]*dA*dG*d[5mC]*dT*dA*dG*dG*dT*kG*kA*kT; antisense) [compound 799233]”, the figure is 28%.
Regarding “799234 (kA*kA*kA*d[5mC]*dA*dT*dT*d[5mC]*dA*dG*d[5mC]*dT*dA*kG*kG*kT; antisense) [compound 799234]”, the “% inhibition of SMAD7 mRNA expression” value was 13%.
For the substance “799235 (kG*kA*kA*dA*dA*dA*d[5mC]*dA*dT*dT*d[5mC]*dA*dG*k[5mC]*kT*kA; antisense) [compound 799235]”, the “% inhibition of SMAD7 mRNA expression” value came to 24%.
Turning to “799236 (kT*kA*kA*dA*d[5mC]*dT*d[5mC]*d[5mC]*dT*dT*dT*dA*dG*kA*kA*kA; antisense) [compound 799236]”, the “% Inhibition” value came out at 45%.
As for “799237 (kA*k[5mC]*kA*dT*dA*dA*dA*d[5mC]*dT*d[5mC]*d[5mC]*dT*dT*kT*kA*kG; antisense) [compound 799237]”, the “% Inhibition” value was determined as 9%.
For the substance “799238 (kA*kA*kT*dG*dG*dA*dA*d[5mC]*dA*dT*dA*dA*dA*k[5mC]*kT*k[5mC]; antisense) [compound 799238]”, the “% Inhibition” value is listed as 17%.
On to “799242 (k[5mC]*kG*kT*dG*dA*dT*dT*d[5mC]*dT*d[5mC]*d[5mC]*dG*dT*kA*kT*kT; antisense) [compound 799242]”, for which the “% inhibition of SMAD7 mRNA expression” value is 0%.
Same read-out and setting: in the case of “799243 (k[5mC]*k[5mC]*kA*d[5mC]*dT*dG*dG*dT*dG*dT*dT*d[5mC]*dG*kA*k[5mC]*kG; antisense) [compound 799243]” it was 19%; in that of “799244 (kG*kG*kG*d[5mC]*d[5mC]*dA*d[5mC]*dT*dG*dG*dT*dG*dT*kT*k[5mC]*kG; antisense) [compound 799244]”, 8%.
“799245 (kG*kT*kA*dT*d[5mC]*dT*dG*dG*dG*d[5mC]*d[5mC]*dA*d[5mC]*kT*kG*kG; antisense) [compound 799245]”: the “% inhibition of SMAD7 mRNA expression” value amounted to 18%.
“799246 (antisense kA*k[5mC]*kA*dG*dT*dA*dT*d[5mC]*dT*dG*dG*dG*d[5mC]*k[5mC]*kA*k[5mC]) [compound 799246]”: the “% inhibition of SMAD7 mRNA expression” value came out at 74%.
Still for that read-out and setting: in the case of “799247 (antisense kA*k[5mC]*kG*dA*d[5mC]*dA*dG*dT*dA*dT*d[5mC]*dT*dG*kG*kG*k[5mC]) [compound 799247]” it was 61%; in that of “799248 (antisense kG*k[5mC]*k[5mC]*dA*d[5mC]*dG*dA*d[5mC]*dA*dG*dT*dA*dT*k[5mC]*kT*kG) [compound 799248]”, 40%; in that of “799249 (antisense kG*k[5mC]*kG*dG*d[5mC]*d[5mC]*dA*d[5mC]*dG*dA*d[5mC]*dA*dG*kT*kA*kT) [compound 799249]”, 26%.

The same data set, now with this note: Hep3B cells, electroporation, 10,000 nM, approximately 24 hours; 3-10-3 cEt gapmers targeting SEQ ID NO: 3 and 4.
Take “799239 (kT*k[5mC]*kA*dG*dT*dT*dG*dG*dT*dT*dT*dG*dA*kG*kA*kA; antisense) [compound 799239]”: the “% inhibition of SMAD7 mRNA expression” value is reported as 16%.
Still for that read-out and setting: in the case of “799240 (kA*kT*k[5mC]*dT*dG*dG*dA*d[5mC]*dA*dG*dT*d[5mC]*dA*kG*kT*kT; antisense) [compound 799240]” it was 45%.

For orientation: % Inhibition means the share of the control response that was lost under treatment.
